# Source: US20240025884A1 (Dong-A ST Co., Ltd., priority 2022, published 2024)
# Target: GCN2 (Homo sapiens (Human), UniProt Q9P2K8)
# Assay: GCN2 Biochemical Assay (TR-FRET, GFP-eIF2S1 substrate phosphorylation)
# Conditions: read-out: IC50 (GCN2 Inhibitory Activity)
# Outline: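 TR-FRET readout (Ex 340, Em 490/520 nm) after 2–3 h with Tb-labelled phospho-eIF2S1 antibody in stop mix, following a 70 min room-temperature kinase step. Reaction: in-house GCN2, GFP-eIF2S1, ATP, tRNA in Tris pH 7.5 (2× stocks 1.6 nM, 50 nM, 0.2 mM); compounds tested at 10 concentrations, with a phospho-substrate artifact counter-plate.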
# GCN2, sequence (Q9P2K8 whole entry): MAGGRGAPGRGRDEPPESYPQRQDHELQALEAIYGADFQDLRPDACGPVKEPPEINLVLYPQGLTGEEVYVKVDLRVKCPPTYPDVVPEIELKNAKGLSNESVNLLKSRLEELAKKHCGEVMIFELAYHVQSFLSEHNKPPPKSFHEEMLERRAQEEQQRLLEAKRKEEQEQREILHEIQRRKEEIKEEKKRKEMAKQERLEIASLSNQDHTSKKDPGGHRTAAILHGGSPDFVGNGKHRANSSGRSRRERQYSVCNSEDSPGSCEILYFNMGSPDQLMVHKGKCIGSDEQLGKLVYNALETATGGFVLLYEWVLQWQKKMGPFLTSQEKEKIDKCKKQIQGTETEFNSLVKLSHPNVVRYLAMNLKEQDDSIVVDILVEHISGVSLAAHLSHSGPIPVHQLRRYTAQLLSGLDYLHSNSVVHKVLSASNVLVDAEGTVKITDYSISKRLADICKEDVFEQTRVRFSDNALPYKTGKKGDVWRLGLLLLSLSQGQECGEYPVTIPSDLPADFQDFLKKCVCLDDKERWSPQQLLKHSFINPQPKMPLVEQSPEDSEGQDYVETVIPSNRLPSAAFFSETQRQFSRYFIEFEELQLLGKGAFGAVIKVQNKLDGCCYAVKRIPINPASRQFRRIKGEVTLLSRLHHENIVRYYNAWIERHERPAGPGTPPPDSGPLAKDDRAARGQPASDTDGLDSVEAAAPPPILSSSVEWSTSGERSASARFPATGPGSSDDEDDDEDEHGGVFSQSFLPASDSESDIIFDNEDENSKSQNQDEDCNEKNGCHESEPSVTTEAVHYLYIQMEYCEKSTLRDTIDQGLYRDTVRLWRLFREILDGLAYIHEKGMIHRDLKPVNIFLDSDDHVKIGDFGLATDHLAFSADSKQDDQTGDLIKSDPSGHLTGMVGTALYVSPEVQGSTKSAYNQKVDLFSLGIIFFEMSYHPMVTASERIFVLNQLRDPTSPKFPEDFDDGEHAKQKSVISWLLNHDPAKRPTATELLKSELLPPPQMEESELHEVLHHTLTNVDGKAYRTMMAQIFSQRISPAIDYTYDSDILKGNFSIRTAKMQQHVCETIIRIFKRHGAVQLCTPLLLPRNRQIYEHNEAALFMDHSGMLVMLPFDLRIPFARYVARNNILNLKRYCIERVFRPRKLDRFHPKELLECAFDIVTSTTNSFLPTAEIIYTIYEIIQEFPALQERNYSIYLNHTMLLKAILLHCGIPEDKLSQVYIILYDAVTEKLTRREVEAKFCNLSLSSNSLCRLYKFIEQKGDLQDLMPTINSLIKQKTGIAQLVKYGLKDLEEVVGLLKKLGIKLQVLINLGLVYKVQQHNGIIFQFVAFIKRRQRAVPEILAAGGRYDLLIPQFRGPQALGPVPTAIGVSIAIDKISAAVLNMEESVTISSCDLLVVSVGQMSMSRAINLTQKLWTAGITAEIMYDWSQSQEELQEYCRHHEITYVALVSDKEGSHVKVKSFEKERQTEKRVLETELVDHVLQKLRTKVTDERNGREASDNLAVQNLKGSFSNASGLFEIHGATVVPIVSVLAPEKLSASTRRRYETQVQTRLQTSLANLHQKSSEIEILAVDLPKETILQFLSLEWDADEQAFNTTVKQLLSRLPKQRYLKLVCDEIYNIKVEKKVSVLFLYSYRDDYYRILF
row,SMILES,IC50
1,"Cc1cnc(Nc2cc(C)n(C)n2)nc1-c1c[nH]c2c(N3Cc4c(cccc4C4=CCCCC4)C3=O)cccc12 [Example 391, 4-(cyclohex-1-en-1-yl)-2-(3-(2-((1,5-dimethyl-1H-pyrazol-3-yl)amino)-5-methylpyrimidin-4-yl)-1H-indol-7-yl)isoindolin-t-one]",10 to 100 nM
2,"Cc1cnc(Nc2cc(C)n(C)n2)nc1-c1c[nH]c2c(N3Cc4c(cccc4-c4ccc(OC(F)(F)F)cc4)C3=O)cccc12 [Example 395, 2-(3-(2-((1,5-dimethyl-1H-pyrazol-3-yl)amino)-5-methylpyrimidin-4-yl)-1H-indol-7-yl)-4-(4-(trifluoromethoxy)phenyl)isoindolin-1-one]",10 to 100 nM
3,"Cc1cnc(Nc2cc(C)n(C)n2)nc1-c1c[nH]c2c(N3Cc4c(cccc4C4=CCN(C(=O)OC(C)(C)C)CC4)C3=O)cccc12 [Example 397, tert-butyl 4-(2-(3-(2-((1,5-dimethyl-1H-pyrazol-3-yl)amino)-5-methylpyrimidin-4-yl)-1H-indol-7-yl)-1-oxoisoindolin-4-yl)-3,6-dihydropyridine-1(2H)-carboxylat]",< 10 nM
4,"Cc1cnc(Nc2cc(C)n(C)n2)nc1-c1c[nH]c2c(N3Cc4c(cccc4-c4ccc(NC(=O)OC(C)(C)C)cc4)C3=O)cccc12 [Example 398, tert-butyl (4-(2-(3-(2-((1,5-dimethyl-1H-pyrazol-3-yl)amino)-5-methylpyrimidin-4-yl)-1H-indol-7-yl)-1-oxoisoindolin-4-yl)phenyl)carbamate]",10 to 100 nM
5,"Cc1cnc(Nc2cc(C)n(C)n2)nc1-c1c[nH]c2c(N3Cc4c(cccc4-c4ccnc(N)c4)C3=O)cccc12 [Example 399, 4-(2-aminopyridin-4-yl)-2-(3-(2-((1,5-dimethyl-1H-pyrazol-3-yl)amino)-5-methylpyrimidin-4-yl)-1H-indol-7-yl)isoindolin-1-one]",< 10 nM
6,"Cc1cnc(Nc2cc(C)n(C)n2)nc1-c1c[nH]c2c(N3Cc4c(cccc4-c4ccncc4F)C3=O)cccc12 [Example 400, 2-(3-(2-((1,5-dimethyl-1H-pyrazol-3-yl)amino)-5-methylpyrimidin-4-yl)-1H-indol-7-yl)-4-(3-fluoropyridin-4-yl)isoindolin-1-one]",< 10 nM
7,"Cc1cnc(Nc2cc(C)n(C)n2)nc1-c1c[nH]c2c(N3Cc4c(cccc4-c4ccc(O)nc4)C3=O)cccc12 [Example 401, 2-(3-(2-((1,5-dimethyl-1H-pyrazol-3-yl)amino)-5-methylpyrimidin-4-yl)-1H-indol-7-yl)-4-(6-hydroxypyridin-3-yl)isoindolin-1-one]",< 10 nM
8,"Cc1cnc(Nc2cc(C)n(C)n2)nc1-c1c[nH]c2c(N3Cc4c(cccc4-c4ccnc(Cl)c4)C3=O)cccc12 [Example 402, 4-(2-chloropyridin-4-yl)-2-(3-(2-((1,5-dimethyl-1H-pyrazol-3-yl)amino)-5-methylpyrimidin-4-yl)-1H-indol-7-yl)isoindolin-1-one]",10 to 100 nM
9,"COc1cc(-c2cccc3c2CN(c2cccc4c(-c5nc(Nc6cc(C)n(C)n6)ncc5C)c[nH]c24)C3=O)c(F)cn1 [Example 403, 2-(3-(2-((1,5-dimethyl-1H-pyrazol-3-yl)amino)-5-methylpyrimidin-4-yl)-1H-indol-7-yl)-4-(5-fluoro-2-methoxypyridin-4-yl)isoindolin-1-one]",10 to 100 nM
10,"Cc1cnc(Nc2cc(C)n(C)n2)nc1-c1c[nH]c2c(N3Cc4c(cccc4-c4ccnc(F)c4)C3=O)cccc12 [Example 404, 2-(3-(2-((1,5-dimethyl-1H-pyrazol-3-yl)amino)-5-methylpyrimidin-4-yl)-1H-indol-7-yl)-4-(2-fluoropyridin-4-yl)isoindolin-1-one]",< 10 nM
11,"Cc1cnc(Nc2cc(C)n(C)n2)nc1-c1c[nH]c2c(N3Cc4c(cccc4-c4ccc(Cl)nc4)C3=O)cccc12 [Example 405, 4-(6-chloropyridin-3-yl)-2-(3-(2-((1,5-dimethyl-1H-pyrazol-3-yl)amino)-5-methylpyrimidin-4-yl)-1H-indol-7-yl)isoindolin-1-one]",10 to 100 nM
12,"COc1ccc(-c2cccc3c2CN(c2cccc4c(-c5nc(Nc6cc(C)n(C)n6)ncc5C)c[nH]c24)C3=O)cn1 [Example 406, 2-(3-(2-((1,5-dimethyl-1H-pyrazol-3-yl)amino)-5-methylpyrimidin-4-yl)-1H-indol-7-yl)-4-(6-methoxypyridin-3-yl)isoindolin-1-one]",10 to 100 nM
13,"Cc1cc(-c2cccc3c2CN(c2cccc4c(-c5nc(Nc6cc(C)n(C)n6)ncc5C)c[nH]c24)C3=O)cnc1F [Example 407, 2-(3-(2-((1,5-dimethyl-1H-pyrazol-3-yl)amino)-5-methylpyrimidin-4-yl)-1H-indol-7-yl)-4-(6-fluoro-5-methylpyridin-3-yl)isoindolin-1-one]",10 to 100 nM

# The remaining lines, values ahead:
row,IC50,SMILES
1,< 10 nM,"Cc1cnc(Nc2cc(C)n(C)n2)nc1-c1c[nH]c2c(N3Cc4c(cccc4-c4ccncc4)C3=O)cccc12 [Example 387, 2-(3-(2-((1,5-dimethyl-1H-pyrazol-3-yl)amino)-5-methylpyrimidin-4-yl)-1H-indol-7-yl)-4-(pyridin-4-yl)isoindolin-1-one]"
2,< 10 nM,"Cc1cnc(Nc2cc(C)n(C)n2)nc1-c1c[nH]c2c(N3Cc4c(cccc4-c4cccnc4)C3=O)cccc12 [Example 388, 2-(3-(2-((1,5-dimethyl-1H-pyrazol-3-yl)amino)-5-methylpyrimidin-4-yl)-1H-indol-7-yl)-4-(pyridin-3-yl)isoindolin-1-one]"
3,< 10 nM,"Cc1cnc(Nc2cc(C)n(C)n2)nc1-c1c[nH]c2c(N3Cc4c(cccc4-c4cnn(C)c4)C3=O)cccc12 [Example 389, 2-(3-(2-((1,5-dimethyl-1H-pyrazol-3-yl)amino)-5-methylpyrimidin-4-yl)-1H-indol-7-yl)-4-(i-methyl-1H-pyrazol-4-yl)isoindolin-1-one]"
4,< 10 nM,"Cc1cnc(Nc2cc(C)n(C)n2)nc1-c1c[nH]c2c(N3Cc4c(cccc4-c4cn[nH]c4)C3=O)cccc12 [Example 390, 2-(3-(2-((1,5-dimethyl-1H-pyrazol-3-yl)amino)-5-methylpyrimidin-4-yl)-1H-indol-7-yl)-4-(1H-pyrazol-4-yl)isoindolin-1-one]"
5,< 10 nM,"Cc1cnc(Nc2cc(C)n(C)n2)nc1-c1c[nH]c2c(N3Cc4c(cccc4C4=CCOCC4)C3=O)cccc12 [Example 392, 4-(3,6-dihydro-2H-pyran-4-yl)-2-(3-(2-((1,5-dimethyl-1H-pyrazol-3-yl)amino)-5-methylpyrimidin-4-yl)-1H-indol-7-yl)isoindolin-1-one]"
6,< 10 nM,"Cc1cnc(Nc2cc(C)n(C)n2)nc1-c1c[nH]c2c(N3Cc4c(cccc4-c4ccoc4)C3=O)cccc12 [Example 393, 2-(3-(2-((1,5-dimethyl-1H-pyrazol-3-yl)amino)-5-methylpyrimidin-4-yl)-1H-indol-7-yl)-4-(furan-3-yl)isoindolin-1-one]"
7,< 10 nM,"Cc1cnc(Nc2cc(C)n(C)n2)nc1-c1c[nH]c2c(N3Cc4c(cccc4C4=CCNCC4)C3=O)cccc12 [Example 394, 2-(3-(2-((1,5-dimethyl-1H-pyrazol-3-yl)amino)-5-methylpyrimidin-4-yl)-1H-indol-7-yl)-4-(1,2,3,6-tetrahydropyridin-4-yl)isoindolin-1-one]"
8,< 10 nM,"Cc1cnc(Nc2cc(C)n(C)n2)nc1-c1c[nH]c2c(N3Cc4c(cccc4-c4ccc(N)cc4)C3=O)cccc12 [Example 396, 4-(4-aminophenyl)-2-(3-(2-((1,5-dimethyl-1H-pyrazol-3-yl)amino)-5-methylpyrimidin-4-yl)-1H-indol-7-yl)isoindolin-1-one]"
